Results taken from the supplement of paper PMC4862054.

What was measured:
Details in all cases: incubation time: 72 h
BT-474 [1] = assay: normalised viability (% of control), CellTiter-Blue; higher = more viable cells (about 100 = DMSO control)
Description: (§1)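 DSRT, CellTiter-Blue viability, 72 h incubation. Signal is normalised to DMSO and benzethonium chloride controls. Value is the normalised response at dose 3.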

BT-549 [2] = assay: as above
Description: as §1

CAL-120 [3] = assay: as above
Description: as §1

CAL-148 = assay: as above
Description: as §1

CAL-51 = assay: as above
Description: as §1

CAL-85-1 = assay: as above
Description: as §1

DU-4475 = assay: as above
Description: as §1

HCC1599 = assay: as above
Description: as §1

HCC1937 [4] = assay: as above
Description: as §1

HDQ-P1 = assay: as above
Description: as §1

Hs578T [5] = assay: as above
Description: as §1

MDA-MB-231 = assay: as above
Description: as §1

MDA-MB-436 = assay: as above
Description: as §1

MDA-MB-453 = assay: as above
Description: as §1

MDA-MB-468 [6] = assay: as above
Description: as §1

MFM-223 = assay: as above
Description: as §1

SK-BR-3 [7] = assay: as above
Description: as §1

CAL-120 [8] = assay: drug sensitivity score (DSS), CellTiter-Blue viability (DSS (AUC-based score)); higher = stronger viability inhibition; extreme values may be limits of the assay
Description: (§2)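 DSRT with the CellTiter-Blue (resazurin reduction) viability readout, fluorescence 560/590 nm, 72 h incubation. Plates were normalised to DMSO and benzethonium chloride controls. DSS is computed from the area under the fitted dose-response curve (5 or 9 concentrations).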

SK-BR-3 [9] = assay: as above
Description: as §2

BT-474 [10] = assay: drug sensitivity score (DSS), CellTox Green (DSS (AUC-based score)); higher = stronger drug effect (viability inhibition or cytotoxicity); extreme values may be limits of the assay
Summary of the method: (§3)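 In 384-well plates, compound was laid out at 5 concentrations in 10-fold steps over a 10,000-fold range specific to each compound, and breast cancer cell lines were seeded on top in 20 µl suspension for a 72 h incubation. CellTox Green fluorescence and then CellTiter-Glo luminescence were read, and each plate was normalised to 0.1 % DMSO and a positive kill control. The drug sensitivity score was calculated from the area under the fitted dose-response curve.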

BT-549 [11] = assay: as above
Summary of the method: as §3

CAL-120 [12] = assay: as above
Summary of the method: as §3

HCC1143 = assay: as above
Summary of the method: as §3

HCC1937 [13] = assay: as above
Summary of the method: as §3

MCF-10A = assay: as above
Summary of the method: as §3

MDA-MB-468 [14] = assay: as above
Summary of the method: as §3

Hs578T [15] = assay: as above
Summary of the method: as §3

Compound: O=C(NC[C@H](O)CO)c1ccncc1Nc1ccc(I)cc1F
- normalised viability (BT-474 [1]; 100 nM): 110%
- normalised viability (BT-549 [2]; 100 nM): 101%
- normalised viability (CAL-120 [3]; 100 nM): 85.1%
- normalised viability (CAL-148; 10 nM): 80.3%
- normalised viability (CAL-51; 10 nM): 99.2%
- normalised viability (CAL-85-1; 10 nM): 90.6%
- normalised viability (DU-4475; 10 nM): 63.7%
- normalised viability (HCC1599; 100 nM): 101%
- normalised viability (HCC1937 [4]; 100 nM): 88.7%
- normalised viability (HDQ-P1; 10 nM): 97.9%
- normalised viability (Hs578T [5]; 100 nM): 79.8%
- normalised viability (MDA-MB-231; 100 nM): 44.8%
- normalised viability (MDA-MB-436; 100 nM): 114%
- normalised viability (MDA-MB-453; 10 nM): 88.7%
- normalised viability (MDA-MB-468 [6]; 100 nM): 87.3%
- normalised viability (MFM-223; 100 nM): 85.4%
- normalised viability (SK-BR-3 [7]; 100 nM): 78.1%
- drug sensitivity score (CAL-120 [8]): 7.78
- drug sensitivity score (SK-BR-3 [9]): 0

Compound: Nc1nc(=O)c2c([nH]1)NCC(CNc1ccc(C(=O)N[C@@H](CCC(=O)O)C(=O)O)cc1)N2C=O (mixture of isomers) [Folinic acid]
- normalised viability (BT-474 [1]; 9.9 nM): 121%
- normalised viability (BT-549 [2]; 9.9 nM): 101%
- normalised viability (CAL-120 [3]; 9.9 nM): 111%
- normalised viability (CAL-148; 0.99 nM): 88.3%
- normalised viability (CAL-51; 0.99 nM): 98.4%
- normalised viability (CAL-85-1; 0.99 nM): 106%
- normalised viability (DU-4475; 0.99 nM): 105%
- normalised viability (HCC1599; 9.9 nM): 108%
- normalised viability (HCC1937 [4]; 9.9 nM): 110%
- normalised viability (HDQ-P1; 0.99 nM): 140%
- normalised viability (Hs578T [5]; 9.9 nM): 96%
- normalised viability (MDA-MB-231; 9.9 nM): 103%
- normalised viability (MDA-MB-436; 9.9 nM): 128%
- normalised viability (MDA-MB-453; 0.99 nM): 104%
- normalised viability (MDA-MB-468 [6]; 9.9 nM): 119%
- normalised viability (MFM-223; 9.9 nM): 95.5%
- normalised viability (SK-BR-3 [7]; 9.9 nM): 104%
- drug sensitivity score (CAL-120 [8]): 0
- drug sensitivity score (SK-BR-3 [9]): 0

Compound: CC/C(=C(\c1ccc(O)cc1)c1ccc(OCCN(C)C)cc1)c1ccccc1 [4-hydroxytamoxifen]
- drug sensitivity score (BT-474 [10]): 3.8
- drug sensitivity score (BT-549 [11]): 0
- drug sensitivity score (CAL-120 [12]): 1.11
- drug sensitivity score (HCC1143): 1.54
- drug sensitivity score (HCC1937 [13]): 8.17
- drug sensitivity score (MCF-10A): 0
- drug sensitivity score (MDA-MB-468 [14]): 21

Compound: CCCCC/C=C/C=C1/C(=O)C=C[C@@H]1C/C=C\CCCC(=O)O [15D-PGJ2]
- drug sensitivity score (BT-474 [10]): 0
- drug sensitivity score (BT-549 [11]): 0
- drug sensitivity score (CAL-120 [12]): 0
- drug sensitivity score (HCC1143): 0
- drug sensitivity score (HCC1937 [13]): 0
- drug sensitivity score (Hs578T [15]): 0
- drug sensitivity score (MCF-10A): 0
- drug sensitivity score (MDA-MB-468 [14]): 0

Compound: CC(=O)OC[C@H]1O[C@@H]([S-])[C@H](OC(C)=O)[C@@H](OC(C)=O)[C@@H]1OC(C)=O.CCP(CC)CC.[Au+] [Auranofin]
- drug sensitivity score (BT-474 [10]): 3.42
- drug sensitivity score (BT-549 [11]): 4.41
- drug sensitivity score (CAL-120 [12]): 0.776
- drug sensitivity score (HCC1143): 0.33
- drug sensitivity score (HCC1937 [13]): 4.79
- drug sensitivity score (Hs578T [15]): 0
- drug sensitivity score (MCF-10A): 0
- drug sensitivity score (MDA-MB-468 [14]): 9.05
